According to PMC3176295 (Bioorganic & medicinal chemistry, 2011):

Experiments:
M. tuberculosis H37Rv = assay: MIC determination by microbroth dilution against M. tuberculosis; type: cell-based, Mycobacterium tuberculosis; conditions: for antitubercular activity / MIC in words: M. tuberculosis
EphB (Rv1938) = EphB (Rv1938) (Mycobacterium tuberculosis, UniProt I6YC03); type: biochemical; conditions: 10 nM
EphE (Rv3670) = EphE (Rv3670) (Mycobacterium tuberculosis, UniProt O69638); assay: EphE inhibition, fluorescent assay with Epoxy Fluor 7; type: biochemical, M. tuberculosis; conditions: for EphE activity in words: 10 nM; for % EphE Inhibition at 10 nM: inhibitor 10 nM, substrate 5 μM, duplicate; for inhibition at 0.01 µM: read-out: % EphE Inhibition at 10 nM, inhibitor 10 nM, substrate 5 μM, duplicate

Sequence of EphB (Rv1938) (I6YC03 whole entry): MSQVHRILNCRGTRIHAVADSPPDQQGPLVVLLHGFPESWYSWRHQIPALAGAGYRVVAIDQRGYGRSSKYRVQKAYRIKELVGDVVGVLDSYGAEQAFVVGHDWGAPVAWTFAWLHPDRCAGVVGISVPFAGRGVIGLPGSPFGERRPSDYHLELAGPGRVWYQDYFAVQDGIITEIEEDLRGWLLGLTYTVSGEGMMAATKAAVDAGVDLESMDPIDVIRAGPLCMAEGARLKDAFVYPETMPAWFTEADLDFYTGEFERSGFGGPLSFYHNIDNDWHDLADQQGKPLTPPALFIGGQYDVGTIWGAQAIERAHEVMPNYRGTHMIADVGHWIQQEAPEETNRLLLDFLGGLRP

Compound | antitubercular activity / MIC in words (M. tuberculosis H37Rv) | EphB inhibition in words (EphB (Rv1938)) | EphE activity in words (EphE (Rv3670)) | further results
O=C(NCC12CC3CC(CC(C3)C1)C2)Nc1ccc(F)c(F)c1F [Compound 3, 1-(1-(1-Adamantyl)methyl)-3-(2,3,4-trifluorophenyl)urea] | good MIC values | relatively poor EphB inhibition | good EphE activity | % EphE Inhibition at 10 nM (EphE (Rv3670)): > 70%
O=C(Nc1ccc(F)c(F)c1F)NC1C2CC3CC(C2)CC1C3 (stereo not shown) [Compound 1, 1-(2-Adamantyl)-3-(2,3,4-trifluorophenyl)urea] | – | – | – | inhibition at 0.01 µM (EphE (Rv3670)): > 70%
Cc1ccc(NC(=O)NC2CCCCCCC2)cc1Cl [Compound 24, 1-(3-Chloro-4-methylphenyl)-3-cyclooctylurea] | – | – | – | % EphE Inhibition at 10 nM (EphE (Rv3670)): > 70%
Cc1ccc(NC(=O)NCC23CC4CC(CC(C4)C2)C3)cc1Cl [Compound 22, 1-(1-(1-Adamantyl)methyl)-3-(3-chloro-4-methylphenyl)urea] | good MIC values | relatively poor EphB inhibition | good EphE activity | –
N#Cc1ccc(NC(=O)NC2C3CC4CC(C3)CC2C4)cc1 (stereo not shown) [Compound 10, 1-(2-Adamantyl)-3-(4-cyanophenyl)urea] | good MIC values | relatively poor EphB inhibition | good EphE activity | –
O=C(Nc1ccc(F)c(F)c1F)OC1C2CC3CC(C2)CC1C3 (stereo not shown) [Compound 32, 2-Adamantyl 2,3,4-trifluorophenylcarbamate] | – | – | – | additional fold decrease in anti-M. tuberculosis potency (M. tuberculosis H37Rv; carbamate, additional to the decrease of thiourea 31): 10 fold
O=C(NCCc1ccccc1)NC1C2CC3CC(C2)CC1C3 (stereo not shown) [Compound 11, 1-(2-Adamantyl)-3-phenethylurea] | good MIC values | relatively poor EphB inhibition | good EphE activity | inhibition at 0.01 µM (EphE (Rv3670)): > 70%
COc1ccc(NC(=O)NC2C3CC4CC(C3)CC2C4)cc1 (stereo not shown) [Compound 35, 1-(2-Adamantyl)-3-(4-methoxyphenyl)urea] | good antitubercular activity | – | – | –
Fc1ccc(NC(=S)NC2C3CC4CC(C3)CC2C4)c(F)c1F (stereo not shown) [Compound 31, 1-(2-Adamantyl)-3-(2,3,4-trifluorophenyl)thiourea] | – | – | – | fold decrease in MIC activity (M. tuberculosis H37Rv; thiourea versus urea 1): 80 fold
CC(C)CCOc1ccc(NC(=O)Nc2ccc(OCCC(C)C)cc2)cc1 [Compound 41, 1,3-Bis(4-(isopentyloxy)phenyl)urea] | inactive | – | – | –
COC(=O)c1ccc(NC(=O)NC23CC4CC(CC(C4)C2)C3)cc1O [Compound 36, Methyl 4-(3-(1-adamantyl)ureido)-2-hydroxybenzoate] | good antitubercular activity | – | – | –
CCCCCCNC(=O)NC1C2CC3CC(C2)CC1C3 (stereo not shown) [Compound 20, 1-(2-Adamantyl)-3-hexylurea] | good MIC values | relatively poor EphB inhibition | good EphE activity | % EphE Inhibition at 10 nM (EphE (Rv3670)): > 70%
